Source: patent EP0101588A1, “Compositions comprising amino and diamino acid derivatives and use thereof as plant growth stimulants” (S.I.P.C.A.M. S.p.A. Società Italiana Prodotti Chimici e per …, priority 1982, dated 1984)
Where a name gives a salt, the structure may show the parent alone.

What was measured:
Assay type in all cases: in vivo
Radish = assay: Greenhouse radish crop, spraying after emergence; settings: 0.01 g/m^2 per treatment, two treatments at an interval of 4 days; for Radish crop roots only: untreated control 165; for Radish crop whole plants: untreated control 198
lettuce = assay: Field trial on lettuce, 4 weekly treatments; settings: 2 g/100 m^2 per treatment, untreated control 18.0
spinach = assay: Field trial on spinach, 4 weekly treatments; settings: 2 g/100 m^2 per treatment, untreated control 8.3
San Marzano tomatoes = assay: Field trial on tomatoes, spraying before and after flowering; settings: 3 g/100 m^2 per treatment, 2 treatments before flowering and 3 weekly after flowering; untreated control 321
Italy grapevines = assay: Vineyard trial, applications mixed with fungicides; settings: 1 g/100 m^2, 2 weekly applications before and 6 after flowering, mixed with fungicide mixtures; untreated control 234
[1] = system: thiosemicarbazide-treated rabbits with epileptic type syndromes; assay: Intramuscular injection in rabbits with epileptic type syndromes; settings: 1 ml of 10% aqueous solution, as long as the level of the compound remains adequate
Protocol: Prepare an aqueous solution containing 10% pure N-carboxymethyl-gamma-aminobutyric acid disodium salt and autoclave for 2 h at 115°C.
Inject very slowly by intramuscular route 1 ml of the solution thus prepared in thiosemicarbazide-treated rabbits with epileptic type syndromes.

NCCCCNCC(=O)[O-].[Na+] [N-carboxymethyl-1,4-diamino-butane sodium salt]
Radish crop roots only (Radish): 272 g/m^2
Radish crop whole plants (Radish): 335 g/m^2
Harvest Lettuce (lettuce): 23.5 kg/100 m^2
Harvest Spinach (spinach): 11.8 kg/100 m^2
Fruit harvest (San Marzano tomatoes): 574 kg/100 m^2
Grape harvest (Italy grapevines): 345 kg/100 m^2

O=C([O-])CCCNCC(=O)[O-].[Na+].[Na+] [N-carboxymethyl gamma-amino-butyric acid disodium salt]
Radish crop roots only (Radish): 280 g/m^2
Radish crop whole plants (Radish): 350 g/m^2
Harvest Lettuce (lettuce): 26.5 kg/100 m^2
Harvest Spinach (spinach): 12.6 kg/100 m^2
Fruit harvest (San Marzano tomatoes): 569 kg/100 m^2
Grape harvest (Italy grapevines): 351 kg/100 m^2
convulsions [1]: convulsions disappear

CC(NCCCC(=O)O)C(=O)O (stereo not shown) [N-methylcarboxymethyl-gamma-aminobutyric acid disodium salt]
Radish crop roots only (Radish): 262 g/m^2
Radish crop whole plants (Radish): 321 g/m^2
Harvest Lettuce (lettuce): 24.3 kg/100 m^2
Harvest Spinach (spinach): 11.5 kg/100 m^2
Fruit harvest (San Marzano tomatoes): 513 kg/100 m^2
Grape harvest (Italy grapevines): 320 kg/100 m^2
